Among the data in patent US8507533B2, “Glucagon receptor modulators” (Pfizer Inc., priority 2011, dated 2013) are Ki and Kb values, retold here.

The Ki is the dissociation constant of the complex between target and ligand, obtained from inhibition or displacement. The low end stands for higher affinity, the high end for lower affinity.

The target in assay [1] is T1, human glucagon receptor (Homo sapiens (Human), UniProt P47871). The assay can be described thus: Human Glucagon SPA Assay (binding of [125I]Glucagon-Cex). To be noted: membrane from chem-1 cells stably transfected with the human glucagon receptor, Ki by Cheng-Prusoff equation.
T1 sequence (P47871 26-477): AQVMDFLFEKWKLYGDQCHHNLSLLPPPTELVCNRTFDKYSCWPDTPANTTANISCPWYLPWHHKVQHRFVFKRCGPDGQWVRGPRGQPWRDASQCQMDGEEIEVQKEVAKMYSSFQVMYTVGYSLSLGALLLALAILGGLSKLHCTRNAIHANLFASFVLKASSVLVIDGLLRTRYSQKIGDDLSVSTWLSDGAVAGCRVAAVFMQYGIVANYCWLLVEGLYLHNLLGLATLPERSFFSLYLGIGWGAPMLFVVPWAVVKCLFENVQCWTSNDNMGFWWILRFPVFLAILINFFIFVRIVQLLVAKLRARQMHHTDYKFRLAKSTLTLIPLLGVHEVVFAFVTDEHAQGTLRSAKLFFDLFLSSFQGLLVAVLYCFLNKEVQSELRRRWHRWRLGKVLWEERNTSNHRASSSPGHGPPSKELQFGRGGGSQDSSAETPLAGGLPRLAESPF
In assay [2] the target is T1, human glucagon receptor. The assay can be described thus: Glucagon cAMP Assay (Cisbio cAMP detection). Particulars: CHOK1 cells stably transfected with the human glucagon receptor; block of glucagon induced cAMP production; Kb by modified Cheng-Prusoff equation. The class given is cell-based.

As for `O=C(O)CCNC(=O)c1ccc([C@H](CCC(F)(F)F)Nc2ccc(-n3cc(C(F)(F)F)cn3)nc2)cc1` (single isomer, unassigned; isomer 2) [Example 173, N-{4-[4,4,4-trifluoro-1-({6-[4-(trifluoromethyl)-1H-pyrazol-1-yl]pyridin-3-yl}amino)butyl]benzoyl}-beta-alanine, Isomer 2], the affinity in assay [1], expressed as Ki, was 26.6 nM. Further, in assay [2], the Kb was determined as 641 nM.
The like results for `CC1(C)CC([C@H](Nc2ccc(-n3cc(C4CC4)cn3)nc2)c2ccc(C(=O)NCCC(=O)O)cc2)C1` (single isomer, unassigned; isomer 2) [Example 175, N-{-4-[{[6-(4-cyclopropyl-1H-pyrazol-1-yl)pyridin-3-yl]amino}(3,3-dimethylcyclobutyl)methyl]benzoyl}-beta-alanine, Isomer 2] were, in that order, 28.7 nM and 10.5 nM.
Taken in the same sequence, the figures for `CC(C)(C)[C@H](Nc1ccc(-n2cc(C(F)(F)F)cn2)nc1)c1ccc(C(=O)NCCC(=O)O)cc1` (single isomer, unassigned; isomer 2) [Example 180, 3-(4-(2,2-dimethyl-1-((6-(4-(trifluoromethyl)-1H-pyrazol-1-yl)pyridin-3-yl)amino)propyl)benzamido)propanoic acid, Isomer 2] were 10.3 nM and 45 nM.
Taken in the same sequence, the figures for `CC(C)(C)[C@H](Nc1ccc(-n2cnc(C(F)(F)F)c2)nc1)c1ccc(C(=O)NCCC(=O)O)cc1` (single isomer, unassigned; isomer 2) [Example 183, 3-(4-(2,2-dimethyl-1-((6-(4-(trifluoromethyl)-1H-imidazol-1-yl)pyridin-3-yl)amino)propyl)benzamido)propanoic acid, Isomer 2] were 53.5 nM and 154 nM.
Turning to `Cc1nn(-c2ccc(N[C@H](c3ccc(C(=O)NCCC(=O)O)cc3)C3CCCC3)cn2)cc1Cl` (single isomer, unassigned; isomer 2) [Example 192, 3-(4-((6-(4-chloro-3-methyl-1H-pyrazol-1-yl)pyridin-3-ylamino)(cyclopentyl)methyl)benzamido)propanoic acid, Isomer 2], the Ki in assay [1] worked out at 50.3 nM. Besides, the Kb in assay [2] was found to be 88.5 nM.
Taken in the same sequence, the figures for `CC(C)c1cn(-c2ccc(NC(c3ccc(C(=O)NCCC(=O)O)cc3)C3CCCC3)cn2)cn1` (stereo not shown) [Example 123, 3-(4-(cyclopentyl(6-(4-isopropyl-1H-imidazol-1-yl)pyridin-3-ylamino)methyl)benzamido)propanoic acid] were 88.4 nM and 106 nM.
The like results for `CCCC(Oc1ccc(-n2cc3cccc(C)c3n2)cc1)c1ccc(C(=O)NCCC(=O)O)cc1` (stereo not shown) [Example 125, 3-(4-(1-(4-(7-methyl-2H-indazol-2-yl)phenoxy)butyl)benzamido)propanoic acid] were, in that order, 98.2 nM and 144 nM.
For `CCCC(Oc1ccc(-n2cc3ccc(C)cc3n2)cc1)c1ccc(C(=O)NCCC(=O)O)cc1` (stereo not shown) [Example 126, 3-(4-(1-(4-(6-methyl-2H-indazol-2-yl)phenoxy)butyl)benzamido)propanoic acid], the inhibition constant Ki in assay [1] worked out at 161 nM. In assay [2], this compound yielded a Kb of 212 nM.
`CCCC(Oc1ccc(-n2cc3c(C)cccc3n2)cc1)c1ccc(C(=O)NCCC(=O)O)cc1` (stereo not shown) [Example 127, 3-(4-(1-(4-(4-methyl-2H-indazol-2-yl)phenoxy)butyl)benzamido)propanoic acid]: the inhibition constant Ki in assay [1] is 316 nM. Moreover, the Kb in assay [2] was 202 nM.
The like results for `CCCC(Oc1ccc(-n2cc3cc(C)ccc3n2)cc1)c1ccc(C(=O)NCCC(=O)O)cc1` (stereo not shown) [Example 128, 3-(4-(1-(4-(5-methyl-2H-indazol-2-yl)phenoxy)butyl)benzamido)propanoic acid] were, in that order, 208 nM and 268 nM.
The like results for `CCCC(Oc1cc(C)c(-n2cc(Cl)cn2)c(C)c1)c1ccc(C(=O)NCCC(=O)O)cc1` (stereo not shown) [Example 130, (+\−)-3-(4-(1-(4-(4-chloro-1H-pyrazol-1-yl)-3,5-dimethylphenoxy)butyl)benzamido)propanoic acid] were, in that order, 116 nM and 195 nM.
Taken in the same sequence, the figures for `Cc1cc(OC(c2ccc(C(=O)NCCC(=O)O)cc2)C2CCCC2)cc(C)c1-n1cnc(C(F)(F)F)c1` (stereo not shown) [Example 131, (+\−)-3-(4-(cyclopentyl(3,5-dimethyl-4-(4-(trifluoromethyl)-1H-imidazol-1-yl)phenoxy)methyl)benzamido)propanoic acid] were 51 nM and 247 nM.
In turn, `CCCC(Nc1ccc(-n2cc(-c3ccccc3)cn2)nc1)c1ccc(C(=O)NCCC(=O)O)cn1` (stereo not shown) [Example 132, (+\−)-3-(6-(1-(6-(4-phenyl-1H-pyrazol-1-yl)pyridin-3-ylamino)butyl)nicotinamido)propanoic acid] returned a Ki in assay [1] of 132 nM. In assay [2], the Kb turned out to be 153 nM.
`CCCC(Oc1ccc(-n2cc3cccc(Cl)c3n2)cc1)c1ccc(C(=O)NCCC(=O)O)cc1` (stereo not shown) [Example 139, (+\−)-3-(4-(1-(4-(7-chloro-2H-indazol-2-yl)phenoxy)butyl)benzamido)propanoic acid] showed a Ki in assay [1] of 354 nM. The same compound displayed a Kb in assay [2] of 147 nM.
The like results for `CCCC(Oc1ccc(-n2cc3cc(Cl)ccc3n2)cc1)c1ccc(C(=O)NCCC(=O)O)cc1` (stereo not shown) [Example 140, (+\−)-3-(4-(1-(4-(5-chloro-2H-indazol-2-yl)phenoxy)butyl)benzamido)propanoic acid] were, in that order, 62.8 nM and 154 nM.
Taken in the same sequence, the figures for `CCCC(Oc1cc(C)c(-n2cnc(C(F)(F)F)c2)c(C)c1)c1ccc(C(=O)NCCC(=O)O)cc1` (stereo not shown) [Example 141, (+\−)-3-(4-(1-(3,5-dimethyl-4-(4-(trifluoromethyl)-1H-imidazol-1-yl)phenoxy)butyl)benzamido)propanoic acid] were 89.5 nM and 586 nM.
In turn, `CCCC(Oc1cc(C)c(-n2cc(C3CC3)cn2)c(C)c1)c1ccc(C(=O)NCCC(=O)O)cc1` (stereo not shown) [Example 144, (+\−)-3-(4-(1-(4-(4-cyclopropyl-1H-pyrazol-1-yl)-3,5-dimethylphenoxy)butyl)benzamido)propanoic acid] had a Ki in assay [1] of 62.6 nM. In assay [2], the Kb was 174 nM.
The like results for `CCCC(Oc1cc(C)c(-n2cc(C(F)(F)F)nn2)c(C)c1)c1ccc(C(=O)NCCC(=O)O)cc1` (stereo not shown) [Example 148, (+\−)-3-(4-(1-(3,5-dimethyl-4-(4-(trifluoromethyl)-1H-1,2,3-triazol-1-yl)phenoxy)butyl)benzamido)propanoic acid] were, in that order, 125 nM and 423 nM.
In turn, `CCCC(Oc1ccc(-n2cc(C(F)(F)F)cn2)cc1C)c1ccc(C(=O)NCCC(=O)O)cc1` (stereo not shown) [Example 159, 3-(4-(1-(2-methyl-4-(4-(trifluoromethyl)-1H-pyrazol-1-yl)phenoxy)butyl)benzamido)propanoic acid] showed a Ki in assay [1] of 315 nM. The compound also had a Kb in assay [2] of 730 nM.
The like results for `Cc1cc([C@@H](CC(C)C)Nc2ccc(C(=O)NCCC(=O)O)cn2)cc(C)c1-n1cc(C(F)(F)F)cn1` [Example 168, (R)-3-(6-((1-(3,5-dimethyl-4-(4-(trifluoromethyl)-1H-pyrazol-1-yl)phenyl)-3-methylbutyl)amino)nicotinamido)propanoic acid] were, in that order, 27.4 nM and 185 nM.
Consider `Cc1cc([C@H](CC(C)C)Nc2ccc(C(=O)NCCC(=O)O)cn2)cc(C)c1-n1cc(C(F)(F)F)cn1` [Example 169, (S)-3-(6-((1-(3,5-dimethyl-4-(4-(trifluoromethyl)-1H-pyrazol-1-yl)phenyl)-3-methylbutyl)amino)nicotinamido)propanoic acid], for which, in assay [1], the Ki was 193 nM. In assay [2], this compound had a Kb of 1150 nM.
Taken in the same sequence, the figures for `CCC[C@H](Oc1cc(C)c(-n2cc3ccccc3n2)c(C)c1)c1ccc(C(=O)NCCC(=O)O)cc1` [Example 187, (S)-3-(4-(1-(4-(2H-indazol-2-yl)-3,5-dimethylphenoxy)butyl)benzamido)propanoic acid] were 47.8 nM and 167 nM.
Taken in the same sequence, the figures for `CC1(C)CC(C(Nc2ccc(-n3cnc(C(F)(F)F)c3)nc2)c2ccc(C(=O)NCCC(=O)O)cc2)C1` (stereo not shown) [Example 188, (+\−)-3-(4-((3,3-dimethylcyclobutyl)(6-(4-(trifluoromethyl)-1H-imidazol-1-yl)pyridin-3-ylamino)methyl)benzamido)propanoic acid] were 42.2 nM and 106 nM.
The like results for `CCCC(Oc1cc(C)c(-n2cc3ccccc3n2)c(C)c1)c1ccc(C(=O)NCCC(=O)O)cc1` (stereo not shown) [Example 189, (+\−)-3-(4-(1-(4-(2H-indazol-2-yl)-3,5-dimethylphenoxy)butyl)benzamido)propanoic acid] were, in that order, 109 nM and 370 nM.
As for `CCCC(Nc1ccc(C(=O)NCCC(=O)O)cn1)c1ccc(-n2cc(C(F)(F)F)cn2)nc1` (stereo not shown) [Example 190, (+\−)-3-(6-(1-(6-(4-(trifluoromethyl)-1H-pyrazol-1-yl)pyridin-3-yl)butylamino)nicotinamido)propanoic acid], the affinity in assay [1] corresponds to a Ki of 399 nM. In assay [2], this compound yielded a Kb of 978 nM.
Taken in the same sequence, the figures for `O=C(O)CCNC(=O)c1ccc(C(Nc2cnc(-n3cnc(C(F)(F)F)c3)nc2)C2CCCC2)cc1` (stereo not shown) [Example 193, 3-(4-(cyclopentyl(2-(4-(trifluoromethyl)-1H-imidazol-1-yl)pyrimidin-5-ylamino)methyl)benzamido)propanoic acid] were 44.7 nM and 84.1 nM.
